Experimental data as given in patent US20230104487A1, “11-(4-CHLOROPHENYL)-4-(2,3-DIHYDRO-1H-INDOLE-1-CARBONYL)-3,11-DIMETHYL-5,10,DIOXATRICYCLO[7.4.0.0,2,6,]TRIDECA-1,3,6,8-TETRAEN-13-ONE AND DERIVATIVES AS DESTABILIZER OF CRY1 FOR THE TREATMENT OF CIRCADIAN RHYTHM ASSOCIATED DISEASES AND DISORDERS” (KOC UNIVERSITESI, priority 2019, published 2023).

Key:
BMAL1 = BMAL1 mRNA and protein, synchronized U2-OS cells; type: cell-based, human; details: 10 μM
Protocol: Cells were lysed in RIPA buffer (50 mM Tris, 150 mM NaCl, 1% Triton-X, 0.1% SDS) with fresh Protease inhibitor cocktail (PIC). After centrifugation at 13000 rpm for 15 minutes at 4° C., supernatant was used to determine the protein amount using Pierce Protein Assay (Thermo Scientific) according to the manufacturer's instruction. Mice liver samples were homogenized and lysed with Dounce homogenizer and RIPA buffer. After homogenization samples were incubated 10 minutes on ice. After centrifugation 13000 rpm 15 minutes at 4° C. supernatant was used for the whole cell lysate. Subcellular fractionation of liver samples: Liver samples were homogenized with cytosolic lysis buffer (10 mM HEPES pH 7.9, 10 mM KCl, 0.1 mM EDTA, 0.05% NP40, proteasome inhibitor) by pipetting 40 times with a cut tip. Then samples were incubated 10 minutes on ice and centrifuged for 3 minutes at 3000 rpm at 4° C. Supernatant was saved in a new tube, and pellet was processed for the nuclear fraction. […] ECL buffer system (Advansta WesternBright) was used to visualize HRP chemi-luminescence via BioRad ChemiDoc Touch visualizer.
QIAGEN RNeasy Mini Kit was used to isolate the mRNA. […] Quantity of RNA was determined by Nanodrop 2000 (Thermo Scientific). […] For quantitative real time PCR (qRT-PCR) analysis cDNAs were further diluted 5-fold (1:5). mRNA expression levels were calculated by qRT-PCR with the SYBR Green. […]

C57BL/6J mice = assay: Single dose toxicity study in mice; type: in vivo
Protocol: Male and female C57BL/6J mice, 8-12 weeks of age, weighing 18-24 g were used in the in vivo studies with FORMULA I. Mice were obtained from Kog University Animal Research Facility (KUTTAM) and experiments were conducted in accordance with the guidelines approved for animal experimental procedures by the Koc University Animal Research Local Ethics Committee (No: 2015/13).
Mice were housed in polystyrene cages up to four animals in the room equipped with temperature control (21±2° C.) and humidity (55±5%). Mice were housed under 12 h of light (L) in alternation with 12 h of darkness (D) (LD 12:12) prior to any intervention and the same lighting regimen continued to the end of the experiment. Water and food were provided ad libitum throughout the experiments. FORMULA I or vehicle were administered intraperitoneally to mice at the same time every day (three hours after light onset). […]
The dose levels to be used in the single dose toxicity study were selected according to the OECD Guidelines (Guidelines for the testing of chemicals, 2002). […] Body weight was measured every day as an index of general toxicity. […] The body temperatures of the mice were recorded by rectal homeothermic monitor (Harvard Apparatus, US) for 5 days following FORMULA I injection. […] Food intake and water consumption were also monitored for 14 days. […] Hematological parameters were analyzed in blood samples.

## Cc1c(C(=O)N2CCc3ccccc32)oc2ccc3c(c12)C(=O)CC(C)(c1ccc(Cl)cc1)O3 (stereo not drawn) [FORMULA I, 11-(4-chlorophenyl)-4-(2,3-dihydro-1H-indole-1-carbonyl)-3,11-dimethyl-5,10,dioxatricyclo[7.4.0.0,2,6,]trideca-1,3,6,8-tetraen-13-one]
BMAL1
  mRNA and protein levels of BMAL1: Decreased mRNA and protein levels of BMAL1
C57BL/6J mice; single doses of 5 and 50 mg/kg
  tolerability: well-tolerated
C57BL/6J mice; summary statement
  toxic effect in pharmacological studies with mice: no toxic effect
